Columns and labels:
E. coli MB1410 [1] = settings: comparative examples, extracted from Scientific Reports 5:10558 or WO2017093210A1; cited from earlier work
P. aeruginosa 36A [2] = settings: comparative examples, extracted from Scientific Reports 5:10558 or WO2017093210A1; cited from earlier work
E. coli ATCC 25922 [3] = settings: comparative examples, extracted from Scientific Reports 5:10558 or WO2017093210A1; cited from earlier work
K. pneumoniae MB674 [4] = type: cell-based; settings: resistance profile of strain K. pneumoniae MB674, Table 3
Experimental: (§1) The antibacterial activity of the polymyxin lipopeptides was measured at ISGlobal following the microdilution test to determine the Minimal Inhibitory Concentrations (MIC) in sterile 96-well polypropilene plates. The concentration range was 32 a […] in Iso-Sensitest broth (Oxoid, ThermoFisher). The results were carried out in triplicate and the highest MIC is the one shown. Bacterial strains were grown in blood agar plates at 37° C. for 17 h. Fresh colonies were used to prepare a McFarland 0.5 solution that was finally added to the plates at 1 to 100 dilution
(§2) Samples of sensitive and multi-drug resistant bacteria were: E. coli ATCC 25922 E. coli MB1410; K. pneumoniae MB674; P. aeruginosa ATCC 27853; P. aeruginosa 36A.

P. aeruginosa ATCC 27853 [5] = experiment: microbe, parasite or virus in culture; type: cell-based; settings: resistance profile of strain P. aeruginosa ATCC 27853, Table 3
Experimental: as §1, §2

P. aeruginosa 36A [6] = experiment: microbe, parasite or virus in culture; type: cell-based; settings: resistance profile of strain P. aeruginosa 36A, Table 3
Experimental: as §1, §2

E. coli MB1410 [7] = experiment: microbe, parasite or virus in culture; type: cell-based; settings: resistance profile of strain E. coli MB1410, Table 3
Experimental: as §1, §2

E. coli ATCC 25922 [8] = experiment: microbe, parasite or virus in culture; type: cell-based; settings: resistance profile of strain E. coli ATCC 25922, Table 3
Experimental: as §1, §2

P. aeruginosa ATCC 27853 [9] = settings: comparative examples, extracted from Scientific Reports 5:10558 or WO2017093210A1; cited from earlier work
K. pneumoniae MB674 [10] = settings: comparative examples, extracted from Scientific Reports 5:10558 or WO2017093210A1; cited from earlier work
[11] = cited from earlier work
Swiss CD-1 female mice = experiment: Nephrotoxicity study, histopathological scoring of kidney lesions; type: in vivo; parameters: key to Group Score (GS): mean of per-animal summed 0-4 lesion scores; higher = more nephrotoxic; key to Animal Score (AS), Partial AS: sum of 0-4 lesion parameter scores; higher = more nephrotoxic; settings: for nephrotoxicity in mice, in words: nephrotoxicity tests carried out in mice, statement of the background
Experimental: Swiss CD-1 female mice weighing approximately 20-24 g (JANVIER Labs) were used, housed in an individually ventilated cage system under specific pathogen-free conditions, and water and food supplied ad libitum. This study plan and the conduct of the study were subjected to review by the Scientific Park of Barcelona Ethical Review Process with the current study procedure Code CEEA (AR) 9377-P2. Mice were administered at a dose of 12 mg/Kg every 2 hours for a total of 6 administrations (total dose 72 mg/Kg), unless otherwise stated. After 20 h, animals were anesthesized with isoflurane, kidneys extracted and prepared for histopathological evaluation, and finally animales were sacrificed. Kidney lesions (tubule dilation, necrosis, tubule casts, cell vacuolization, cell desquamation, and cell swelling) were quantified by microscopical observation (see for instance, Roberts, ACS Infect. Dis., 2015, 1, 568). Each one of these parameters was scored with values from 0 to 4 for each animal, as a global result of observations in kidney. Partial scores have been added up to obtain a final score for each animal (Animal Score, AS). The mean of animal score has been obtained to define the Group Score (GS). The higher the score, the more nephrotoxic a compound is. The nephrotoxicity score has been determined as according to the following table of approximated values: […]

[12] = in vivo; cited from earlier work
[13] = Table 6, sum of mouse scores, 12 mg/Kg every 2 hours × 6, subcutaneous, total 72 mg/Kg
[14] = Table 8, 12 mg/Kg every 2 hours × 6 sc, total 72 mg/Kg, 3 mice

| Substance | antibacterial activity (MIC) (E. coli MB1410 [1]) [µg/mL] | antibacterial activity (MIC) (P. aeruginosa 36A [2]) [µg/mL] | antibacterial activity (MIC) (E. coli ATCC 25922 [3]) [µg/mL] | antibacterial activity (MIC) (P. aeruginosa ATCC 27853 [9]) [µg/mL] | antibacterial activity (MIC) (K. pneumoniae MB674 [10]) [µg/mL] | AS, Partial AS (Swiss CD-1 female mice; [14]) | Cell vacuolization, Partial AS (Swiss CD-1 female mice; [14]) | Cloudy swelling, Partial AS (Swiss CD-1 female mice; [14]) | Group Score (GS) (Swiss CD-1 female mice; [14]) | Mice found dead (Swiss CD-1 female mice; [14]) | Tubular casts, Partial AS (Swiss CD-1 female mice; [14]) | Tubular dilaion, Partial AS (Swiss CD-1 female mice; [14]) | Tubular necrosis, Partial AS (Swiss CD-1 female mice; [14]) | also measured |
| --- | --- | --- | --- | --- | --- | --- | --- | --- | --- | --- | --- | --- | --- | --- |
| Colistin [Col.] | 0.5 | 1 | 0.5 | 2 | 1 | – | – | – | – | – | – | – | – | MIC (K. pneumoniae MB674 [4]): 0.2 µg/mL; MIC (P. aeruginosa ATCC 27853 [5]): 2 µg/mL; MIC (P. aeruginosa 36A [6]): 1 µg/mL; MIC (E. coli MB1410 [7]): 0.75 µg/mL; MIC (E. coli ATCC 25922 [8]): 0.5 µg/mL |
| Polymyxin B [PxB] | 0.5 | 1 | 0.25 | 1 | 0.25 | 7 | 0 | 6 | 2.3 | none | 0 | 1 | 0 | kidney concentration relative to serum concentration ([11]; after 6 h): more than 30 time; period of accumulation in kidneys ([11]; long after administration, when barely detectable in serum): at least 48 h; Mice found dead (Swiss CD-1 female mice; Table 6, 12 mg/Kg every 2 hours × 6, subcutaneous, total 72 mg/Kg): None; Group Score (GS) (Swiss CD-1 female mice; Table 6, mean of animal scores, 12 mg/Kg every 2 hours × 6, subcutaneous, total 72 mg/Kg): 3.4; Cell desquamation, Partial AS (Swiss CD-1 female mice; [13]): 0; Cell vacuolization, Partial AS (Swiss CD-1 female mice; [13]): 1; Cloudy swelling, Partial AS (Swiss CD-1 female mice; [13]): 21; Tubular casts, Partial AS (Swiss CD-1 female mice; [13]): 3; Tubular dilation, Partial AS (Swiss CD-1 female mice; [13]): 1; Tubular necrosis, Partial AS (Swiss CD-1 female mice; [13]): 1; Animal Score (AS), Partial AS (Swiss CD-1 female mice; Table 6, sum over all mice, 12 mg/Kg every 2 hours × 6, subcutaneous, total 72 mg/Kg): 27 |
| Decanoyl-Dab-Thr-Dab-cyclo(S-S)[Cys-Dab-DPhe-Nle-Dab-Dab-DCys] [compound 2] | – | – | – | – | – | 4 | 0 | 3 | 4 | 2 dead | 0 | 1 | 0 | toxicity in acute toxicity tests, in words [12]: did not showed toxicity; nephrotoxicity in mice, in words (Swiss CD-1 female mice; listed as Decanoyl-Dab-Thr-Dab-ciclo(S—S)[Cys-Dab-DPhe-Nle-Dab-Dab-DCys)): showed toxicity; nephrotoxicity in mice, in words (Swiss CD-1 female mice; listed as Decanoyl-Dab-Thr-Dab-cyclo(S—S)[Cys-Dab-DPhe-Leu-Dab-Dab-DCys]): showed nephrotoxicity |

— patent US20210253520A1, “POLYMYXIN-BASED COMPOUNDS USEFUL AS ANTIBACTERIAL AGENTS” (UNIVERSITAT DE BARCELONA, priority 2018, published 2021)
